# Test results published in PMC6176987, “Correction of cognitive deficits in mouse models of Down syndrome by a pharmacological inhibitor of DYRK1A” (Disease Models & Mechanisms, 2018).
# Assays:
# DYRK1A [1] = test system: DYRK1A; set-up: method as in Khan et al., 2006; Yang et al., 2009; conditions: ref Khan et al., 2006; Yang et al., 2009; cited from earlier work
# vimentin = test system: vimentin; set-up: method as in Khan et al., 2006; Yang et al., 2009; conditions: ref Khan et al., 2006; Yang et al., 2009; cited from earlier work
# laminin receptor = biological target: laminin receptor; set-up: method as in Khan et al., 2006; Yang et al., 2009; conditions: ref Khan et al., 2006; Yang et al., 2009; cited from earlier work
# CDK2/cyclin A = CDK2/cyclin A (Homo sapiens, UniProt P24941); test: Recombinant protein kinase assay, CDK2/cyclin A; format: biochemical; conditions: 15 µM ATP
# CDK5/p25 = CDK5/p25 (Homo sapiens, UniProt Q00535); test: Recombinant protein kinase assay, CDK5/p25; format: biochemical; conditions: 15 µM ATP
# CDK9/cyclin T = biological target: T1, CDK9/cyclin T (Homo sapiens, UniProt P50750); test: Recombinant protein kinase assay, CDK9/cyclin T; format: biochemical; conditions: 15 µM ATP
# T1 construct: made in house; host or cells: insect cells
# CLK2 = CLK2 (Mus musculus, UniProt O35491); test: Recombinant protein kinase assay, CLK2; format: biochemical; conditions: 15 µM ATP; read-out: IC50 CLK2
# CLK3 = CLK3 (Mus musculus, UniProt O35492); test: Recombinant protein kinase assay, CLK3; format: biochemical; conditions: 15 µM ATP; read-out: IC50 CLK3
# DYRK1A [2] = biological target: DYRK1A (Homo sapiens, UniProt Q13627); test: Recombinant protein kinase assay, DYRK1A; format: biochemical; conditions: 15 µM ATP
# DYRK3 = DYRK3 (Homo sapiens, UniProt O43781); test: Recombinant protein kinase assay, DYRK3; format: biochemical; conditions: 15 µM ATP
# CK2 = biological target: T2, CK2 (Homo sapiens, UniProt P68400); test: Recombinant protein kinase assay, CK2; format: biochemical; conditions: 15 µM ATP
# T2 construct: Cochet
# Tg(Dyrk1a) mice = test: Novel object recognition (NOR) test in Tg(Dyrk1a) mice; format: in vivo, mouse; conditions: daily i.p. treatment for 19 days
# DYRK1A [3] = biological target: T3, DYRK1A (Mus musculus, UniProt Q61214); test: Brain DYRK1A catalytic activity after treatment, Tg(Dyrk1a) mice; format: in vivo; conditions: 19 days of treatment
# T3 construct: DYRK1A was purified from brain extracts by immunoprecipitation; from tissue; host or cells: mouse brain (wt, Tg(Dyrk1a), Ts65Dn)
# Description: Protein kinase assays to measure the catalytic activity of DYRK1A in the brains of the animals treated with or without drugs were performed as follows: frozen half brains were homogenized in lysis buffer (1.2 ml/half brain) using Precellys® homogenizer tubes. After centrifugation at 2800 g for 2×15 s, 1 mg brain extract was incubated with 2 µg DYRK1A (H00001859 M01, Interchim) or GSK3-β (MBS8508391, Emelca Bioscience, France) antibodies at 4°C for 1 h under gentle rotation. Then, 20 µl protein G agarose beads (Thermo Fisher Scientific, France), previously washed three times with bead buffer (50 mM Tris pH 7.4, 5 mM NaF, 250 mM NaCl, 5 mM EDTA, 5 mM EGTA, 0.1% Nonidet P-40 and protease inhibitor cocktail from Roche, France), were added to the mix and gently rotated at 4°C for 30 min. After a 1 min spin at 10,000 g and removal of the supernatant, the pelleted immune complexes were washed three times with bead buffer, and a last time with Buffer C (60 mM β-glycerophosphate, 30 mM p-nitrophenolphosphate, 25 mM Mops pH 7.2, 5 mM EGTA, 15 mM MgCl2, 2 mM dithiothreitol, 0.1 mM sodium orthovanadate, 1 mM phenylphosphate, protease inhibitor cocktail). DYRK1A or GSK-3 immobilized on beads were assayed in buffer C as described in the Supplementary Materials and Methods with Woodtide ([…]) (1.5 µg/assay) or GSK3-tide ([…]pSED-EEE, where pS stands for phosphorylated serine) as substrates.
# CLK1 = CLK1 (Mus musculus, UniProt P22518); test: Recombinant protein kinase assay, CLK1; format: biochemical; conditions: 15 µM ATP; read-out: IC50 CLK1
# CLK4 = CLK4 (Mus musculus, UniProt O35493); test: Recombinant protein kinase assay, CLK4; format: biochemical; conditions: 15 µM ATP
# DYRK1B = DYRK1B (Homo sapiens, UniProt Q9Y463); test: Recombinant protein kinase assay, DYRK1B; format: biochemical; conditions: 15 µM ATP
# DYRK2 = DYRK2 (Homo sapiens, UniProt Q92630); test: Recombinant protein kinase assay, DYRK2; format: biochemical; conditions: 15 µM ATP
# PIM1 = PIM1 (Homo sapiens, UniProt P11309); test: Recombinant protein kinase assay, PIM1; format: biochemical; conditions: 15 µM ATP
# PIM1, sequence (P11309 whole entry): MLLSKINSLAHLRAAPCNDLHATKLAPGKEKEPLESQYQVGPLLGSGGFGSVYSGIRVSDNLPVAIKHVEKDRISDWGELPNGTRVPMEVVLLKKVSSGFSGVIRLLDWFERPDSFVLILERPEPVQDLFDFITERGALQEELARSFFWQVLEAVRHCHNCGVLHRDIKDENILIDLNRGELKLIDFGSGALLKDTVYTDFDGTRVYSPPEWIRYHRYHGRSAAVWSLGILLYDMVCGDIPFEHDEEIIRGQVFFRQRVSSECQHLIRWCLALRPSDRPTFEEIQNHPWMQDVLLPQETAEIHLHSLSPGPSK
# T2 sequence (P68400 whole entry): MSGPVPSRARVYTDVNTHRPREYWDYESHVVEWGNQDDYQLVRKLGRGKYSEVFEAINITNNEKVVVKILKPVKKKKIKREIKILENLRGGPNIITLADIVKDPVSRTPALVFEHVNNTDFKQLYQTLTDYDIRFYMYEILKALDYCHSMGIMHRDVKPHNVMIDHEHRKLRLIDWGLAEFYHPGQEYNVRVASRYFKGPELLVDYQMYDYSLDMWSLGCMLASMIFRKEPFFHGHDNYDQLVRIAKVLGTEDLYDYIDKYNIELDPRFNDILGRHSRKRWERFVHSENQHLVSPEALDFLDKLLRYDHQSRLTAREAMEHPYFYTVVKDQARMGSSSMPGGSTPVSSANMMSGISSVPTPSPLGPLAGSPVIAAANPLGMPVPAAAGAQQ
# DYRK3, sequence (O43781 whole entry): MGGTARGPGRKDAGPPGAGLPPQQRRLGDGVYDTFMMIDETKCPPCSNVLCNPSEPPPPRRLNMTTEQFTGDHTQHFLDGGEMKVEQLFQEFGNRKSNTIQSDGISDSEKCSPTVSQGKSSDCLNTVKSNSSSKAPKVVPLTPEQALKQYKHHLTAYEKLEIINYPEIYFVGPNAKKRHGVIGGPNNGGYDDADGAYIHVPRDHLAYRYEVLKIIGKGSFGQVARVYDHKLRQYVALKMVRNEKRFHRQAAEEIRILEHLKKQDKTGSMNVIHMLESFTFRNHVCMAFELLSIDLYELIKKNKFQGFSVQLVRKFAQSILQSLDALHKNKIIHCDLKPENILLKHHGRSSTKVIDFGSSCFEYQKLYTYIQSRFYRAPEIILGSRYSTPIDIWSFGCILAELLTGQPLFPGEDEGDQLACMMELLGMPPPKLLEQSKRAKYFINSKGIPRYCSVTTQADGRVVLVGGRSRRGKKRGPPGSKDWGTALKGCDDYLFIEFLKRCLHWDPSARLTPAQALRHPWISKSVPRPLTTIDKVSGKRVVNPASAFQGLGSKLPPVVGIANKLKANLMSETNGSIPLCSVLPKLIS
# CLK3, sequence (O35492 whole entry): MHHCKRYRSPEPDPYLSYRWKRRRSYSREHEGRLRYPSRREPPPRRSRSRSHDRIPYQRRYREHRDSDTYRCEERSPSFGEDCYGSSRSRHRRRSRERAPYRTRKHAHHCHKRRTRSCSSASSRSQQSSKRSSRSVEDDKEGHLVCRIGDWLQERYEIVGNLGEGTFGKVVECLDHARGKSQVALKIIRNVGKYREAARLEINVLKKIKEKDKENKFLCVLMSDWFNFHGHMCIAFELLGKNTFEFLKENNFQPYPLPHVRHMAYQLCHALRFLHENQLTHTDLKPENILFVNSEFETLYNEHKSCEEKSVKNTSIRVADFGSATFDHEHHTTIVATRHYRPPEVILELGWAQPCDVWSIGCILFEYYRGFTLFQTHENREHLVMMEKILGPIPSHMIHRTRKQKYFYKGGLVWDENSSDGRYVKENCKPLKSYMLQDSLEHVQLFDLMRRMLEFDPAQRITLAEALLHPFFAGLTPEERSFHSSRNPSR
# CLK2, sequence (O35491 whole entry): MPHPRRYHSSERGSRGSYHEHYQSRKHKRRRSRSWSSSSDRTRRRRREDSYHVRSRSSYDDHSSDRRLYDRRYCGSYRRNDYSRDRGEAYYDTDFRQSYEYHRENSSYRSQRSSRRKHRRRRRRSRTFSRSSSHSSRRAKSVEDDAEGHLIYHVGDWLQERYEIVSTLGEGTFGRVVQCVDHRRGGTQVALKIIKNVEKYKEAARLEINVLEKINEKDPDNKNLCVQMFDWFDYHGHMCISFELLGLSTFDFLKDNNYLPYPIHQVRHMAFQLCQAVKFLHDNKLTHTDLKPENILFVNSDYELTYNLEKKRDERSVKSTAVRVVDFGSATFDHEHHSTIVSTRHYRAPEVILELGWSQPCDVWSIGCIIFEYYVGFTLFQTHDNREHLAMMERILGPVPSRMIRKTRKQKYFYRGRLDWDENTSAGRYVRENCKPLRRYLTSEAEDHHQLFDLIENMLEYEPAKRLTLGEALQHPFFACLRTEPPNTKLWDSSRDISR
# T1 sequence (P50750 whole entry): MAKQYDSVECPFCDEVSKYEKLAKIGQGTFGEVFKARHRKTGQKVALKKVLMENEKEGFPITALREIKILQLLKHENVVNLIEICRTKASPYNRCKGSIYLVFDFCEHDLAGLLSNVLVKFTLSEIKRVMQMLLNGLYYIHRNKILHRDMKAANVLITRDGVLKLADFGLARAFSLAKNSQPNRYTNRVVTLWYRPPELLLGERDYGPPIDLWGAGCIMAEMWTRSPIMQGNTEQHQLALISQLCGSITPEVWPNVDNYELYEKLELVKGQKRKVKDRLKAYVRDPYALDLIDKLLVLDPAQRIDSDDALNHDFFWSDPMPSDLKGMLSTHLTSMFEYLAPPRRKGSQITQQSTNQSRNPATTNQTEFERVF
# T1 sequence (O60563 whole entry partner): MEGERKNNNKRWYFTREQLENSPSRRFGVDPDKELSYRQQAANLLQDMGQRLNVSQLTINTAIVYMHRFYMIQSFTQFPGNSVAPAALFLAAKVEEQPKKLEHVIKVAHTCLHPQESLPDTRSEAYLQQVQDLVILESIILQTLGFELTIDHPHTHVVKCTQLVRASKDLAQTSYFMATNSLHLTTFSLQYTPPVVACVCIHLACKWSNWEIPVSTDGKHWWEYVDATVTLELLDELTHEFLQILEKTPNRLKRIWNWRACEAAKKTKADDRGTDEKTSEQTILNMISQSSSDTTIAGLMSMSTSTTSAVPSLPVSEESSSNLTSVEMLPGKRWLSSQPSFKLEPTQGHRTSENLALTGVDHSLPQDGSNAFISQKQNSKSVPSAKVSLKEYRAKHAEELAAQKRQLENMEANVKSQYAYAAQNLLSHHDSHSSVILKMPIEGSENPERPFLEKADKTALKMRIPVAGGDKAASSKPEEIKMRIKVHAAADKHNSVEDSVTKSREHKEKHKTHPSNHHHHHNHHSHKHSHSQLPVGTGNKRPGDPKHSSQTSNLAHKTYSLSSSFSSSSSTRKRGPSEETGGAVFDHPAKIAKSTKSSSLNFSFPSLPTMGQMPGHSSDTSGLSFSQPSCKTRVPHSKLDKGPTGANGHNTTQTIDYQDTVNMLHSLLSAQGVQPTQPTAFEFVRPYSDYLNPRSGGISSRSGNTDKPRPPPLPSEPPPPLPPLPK
# CDK5/p25, sequence (Q00535 whole entry): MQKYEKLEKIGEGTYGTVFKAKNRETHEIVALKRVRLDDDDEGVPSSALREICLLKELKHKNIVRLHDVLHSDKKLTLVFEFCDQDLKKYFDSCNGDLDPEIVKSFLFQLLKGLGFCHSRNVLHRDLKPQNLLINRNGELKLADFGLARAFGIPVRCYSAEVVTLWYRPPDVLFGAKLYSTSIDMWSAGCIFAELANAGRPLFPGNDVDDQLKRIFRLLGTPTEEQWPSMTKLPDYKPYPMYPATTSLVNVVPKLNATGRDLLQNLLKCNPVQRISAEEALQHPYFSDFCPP
# CDK5/p25, sequence (Q15078 99-307 partner limits assumed): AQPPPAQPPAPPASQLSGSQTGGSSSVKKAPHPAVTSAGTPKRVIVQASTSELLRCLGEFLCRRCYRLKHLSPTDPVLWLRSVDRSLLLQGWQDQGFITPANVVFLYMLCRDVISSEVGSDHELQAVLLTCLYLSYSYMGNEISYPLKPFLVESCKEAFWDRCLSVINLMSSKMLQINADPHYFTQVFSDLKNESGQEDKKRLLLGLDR
# DYRK1B, sequence (Q9Y463 whole entry): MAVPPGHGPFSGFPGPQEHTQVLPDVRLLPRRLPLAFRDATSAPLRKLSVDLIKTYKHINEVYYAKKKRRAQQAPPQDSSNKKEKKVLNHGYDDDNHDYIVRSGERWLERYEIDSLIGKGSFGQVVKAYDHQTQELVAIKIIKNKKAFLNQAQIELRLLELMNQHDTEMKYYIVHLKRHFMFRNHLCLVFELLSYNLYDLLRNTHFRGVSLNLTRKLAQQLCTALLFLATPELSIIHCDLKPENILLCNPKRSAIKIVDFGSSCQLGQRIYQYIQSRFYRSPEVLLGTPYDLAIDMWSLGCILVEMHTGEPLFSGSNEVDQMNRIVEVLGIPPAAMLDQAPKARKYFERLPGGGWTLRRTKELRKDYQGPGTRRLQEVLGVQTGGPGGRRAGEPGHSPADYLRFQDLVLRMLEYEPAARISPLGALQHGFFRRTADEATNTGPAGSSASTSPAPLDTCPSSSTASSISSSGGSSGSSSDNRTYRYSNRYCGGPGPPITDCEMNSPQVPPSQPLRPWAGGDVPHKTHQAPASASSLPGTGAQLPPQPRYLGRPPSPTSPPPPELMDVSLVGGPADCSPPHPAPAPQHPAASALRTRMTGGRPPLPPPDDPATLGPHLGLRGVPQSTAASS
IC50 (CLK1),IC50 (CLK4),IC50 (DYRK1B),IC50 (DYRK2),IC50 (PIM1),SMILES,IC50 (DYRK1A [1]),IC50 (vimentin),IC50 (laminin receptor),IC50 (CDK2/cyclin A),IC50 (CDK5/p25),IC50 (CDK9/cyclin T),IC50 (CLK2),IC50 (CLK3),IC50 (DYRK1A [2]),IC50 (DYRK3),IC50 (CK2),Behavioural effect in NOR test (Tg(Dyrk1a) mice),Tg(Dyrk1a) brain DYRK1A activity (DYRK1A [3])
–,–,–,–,–,"O=C(O[C@@H]1Cc2c(O)cc(O)cc2O[C@@H]1c1cc(O)c(O)c(O)c1)c1cc(O)c(O)c(O)c1 [EGCG, epigallocatechin gallate]",330 nM,3 nM,40 nM,–,–,–,–,–,–,–,–,–,–
–,–,–,–,–,O=C1NC(Nc2ccccc2)=N/C1=C\c1ccc2c(c1)OCCCO2 [L43],–,–,–,> 10000 nM,> 10000 nM,> 10000 nM,> 10000 nM,> 10000 nM,7400 nM,> 10000 nM,> 10000 nM,lack of effects,did not reduce
12 nM,12 nM,20 nM,15 nM,210 nM,COc1cc(/C=C2\N=C(Nc3ccc(N4CCN(C)CC4)cc3)NC2=O)ccc1O [L99],–,–,–,> 10000 nM,> 10000 nM,320 nM,30 nM,700 nM,14 nM,10 nM,> 10000 nM,beneficial behavioural effects,–
